# System: Mtb strains INH-R1, INH-R2, RIF-R1, RIF-R2, FQ-R1
# Test: microbe, parasite or virus in culture
# Type: cell-based
# Conditions: Mycobacterium tuberculosis; read-out: MIC against resistant isolates
smiles,measurement,value
"CCOC(=O)c1c(NC(=O)c2c(F)c(F)c(F)c(F)c2F)sc2c1CCN(CC)C2 [4{3,3,0}, ethyl 6-ethyl-2-(perfluorobenzamido)-4,5,6,7-tetrahydrothieno[2,3-c]pyridine-3-carboxylate]",MIC,0.2 to 0.44 µM
